Experimental data published in US8435950B2, “Anti-aging peptides and cosmetic and/or pharmaceutical composition containing same” (ISP Investments, priority 2009, dated 2013).
Where no end group is shown, it is not given here.

Assays:
Clock protein [1] = test: Ex vivo immunolabeling of Clock protein in skin biopsies; assay type: cell-based; conditions: human skin ex vivo, peptide diluted to 1%, topical, 48 hr
Procedure: (§1) A study of the activating effect of the peptide SEQ ID no.1 was carried out by evaluating the expression of Clock and Per-1 proteins in skin biopsies ex vivo.
(§2) Ex vivo studies by immunolabeling have made it possible to evidence the expression of Clock and Per-1 proteins in skin samples. Samples of human skin are cultured at the air/liquid interface. The peptide SEQ ID no.1 diluted to 1% (from a 10^−4M solution) is applied topically to these samples for 48 hr at a rate of two times per 24 hr.
(§3) Skin samples not treated with the peptide SEQ ID no.1 serve as a control. The skin samples are fixed with 10% formaldehyde and enclosed in paraffin. Sectional cuts of 3 μm are then made with a microtome. The immunolabeling is carried out after removal of the paraffin and unmasking of the antigenic sites.
The immunolabeling for the Clock protein is carried out by means of an antibody (ABcam) diluted 1/250 and a secondary antibody diluted 1/50 and coupled to a fluorochrome.
(§4) The slides are then mounted in a suitable medium and observed under epifluorescence microscope (Nikon Eclipse E600).

Clock protein [2] = test: Immunohistochemistry (immunolabeling) of Clock protein in cultured fibroblasts; assay type: cell-based; conditions: 18 hr, peptide diluted 1% (from a 10^-4M solution), versus untreated
Procedure: (§5) A study of the activating effect of the peptide SEQ ID no.1 was carried out by evaluating the expression of the Clock protein by western blot in cultured fibroblasts and by immunohistochemistry by labeling the Clock protein by means of immunolabeling. The technique of western blotting is a semi-quantitative method which makes it possible to evaluate the level of Clock protein in dermal cells.
Cultured fibroblasts are cultivated in 8-well chambers (labteck) at 37° C. in a humidified atmosphere containing 5% CO2 for 18 hr in the presence or absence of the peptide SEQ ID no.1, diluted 1% (from a 10^−4M solution). Untreated cells are cultivated at the same time and serve as a control. On the day of labeling the cells are rinsed, fixed in a mixture (2% glutaraldehyde—2% formaldehyde) for 3 minutes and then rinsed. The primary antibody (ABcam), diluted 1/250 is applied for 1 hour and a secondary antibody, diluted 1/50 and coupled to a fluorochrome is applied for 1 hour. The cells are then mounted between a slide and cover glass in a suitable mounting medium and observed under epifluorescence microscope.

Clock protein [3] = test: Western blot of Clock protein expression in cultured fibroblasts; assay type: cell-based; conditions: 16 hr, peptide diluted to 1% (from a 10^-4M solution), untreated control = 100%, Experiment 1
Procedure: as §5
Cultured fibroblasts are cultivated in containers with a diameter of 100 mm at 37° C. in a humidified atmosphere containing 5% CO2 for 16 hr in the presence or absence of the peptide SEQ ID no.1, diluted to 1% (from a 10^−4M solution). The cells are rinsed and then removed from the support with the aid of an extraction buffer (20 mM TRIS, 150 mM NaCl, 10 mM EDTA, 0.2% triton […]) in the presence of a cocktail of protease inhibitors (Sigma). The proteins thus extracted are centrifuged at 4° C. at 10000 rpm, before being dosed by the BCA protein dosing kit (Pierce). The cellular lysates are mixed with a denaturing buffer and subjected to SDS-PAGE electrophoresis. The gel used is 4-12% Nupage (Invitrogen). The proteins are then transferred to a nitrocellulose membrane (Pal corporation). […] The quantitative evaluation of the proteins present in the cells was carried out using the chemiimager software (Alpha innotech Corporation USA).

Clock protein [4] = test: Ex vivo immunolabeling of Clock protein in skin biopsies aged artificially during culture; assay type: cell-based, human
Procedure: (§6) A study of the activating effect of the peptide SEQ ID no.1 was carried out by evaluating the expression of Clock and Per-1 proteins in skin models, aged artificially during culture. The analysis was carried out after 62 hr and 134 hr of culturing.
as §2, with “samples aged during culture.” for “samples.”, “interface for 62 hr and 134 hr.” for “interface.”, “samples” for “samples for 48 hr”, “day during the period of the experiment.” for “24 hr.”
as §3, with “are” for “are then”, “sites. The immunolabeling for the Clock protein is carried out by means of an antibody (ABcam) diluted 1/250 and a secondary antibody diluted 1/50 and coupled to a fluorochrome.” for “sites.”
as §4

Per-1 protein [5] = test: Ex vivo immunolabeling of Per-1 protein in skin biopsies aged artificially during culture; assay type: cell-based, human; conditions: after 62 hr of treatment
Procedure: as §6
as §2, with “samples aged during culture.” for “samples.”, “interface for 62 hr and 134 hr.” for “interface.”, “samples” for “samples for 48 hr”, “day during the period of the experiment.” for “24 hr.”
as §3, with “are” for “are then”, “sites. The immunolabeling for the Clock protein is carried out by means of an antibody (ABcam) diluted 1/250 and a secondary antibody diluted 1/50 and coupled to a fluorochrome.” for “sites.”
The immunolabeling for the Per-1 protein is carried out by a polyclonal antibody (Cosmobio) diluted 1/100 and a secondary antibody diluted 1/50 and coupled to a fluorochrome. […]

skin biopsies = test: Protective effect on morphology of skin biopsies during aging (hematoxyline/eosin histology); assay type: cell-based, human; conditions: 62 and 134 h culture, peptide diluted to 1% topically twice per day; untreated skin damaged
Procedure: A study of the protective effect of the peptide SEQ ID no.1 was carried out in parallel by evaluating the damage caused by aging at 62 hr and 134 hr by way of immunohistology by means of colouration of sectional cuts of skin.
Samples of human skin are placed in culture at the air/liquid interface. The peptide SEQ ID no.1 diluted to 1% (from a 10^−4M solution) is applied topically to these samples for 62 hr and 134 hr. The application is renewed twice per day during the period of the experiment. Untreated skin samples serve as a control during the experiment. The skin samples are fixed with 4% formaldehyde and enclosed in paraffin. Sectional cuts of 3 μm are made with a microtome. The tissues are coloured using hematoxyline (which colours the cell nuclei blue-black) and eosin, which is specific to the colouration of cytoplasms. The morphological structure of the biopsies is then assessed under transmission microscope.

Per-1 protein [6] = test: Ex vivo immunolabeling of Per-1 protein in skin biopsies; assay type: cell-based; conditions: human skin ex vivo, peptide diluted to 1%, topical, 48 hr
Procedure: as §1, §2, §3
The immunolabeling for the Per-1 protein is carried out by a polyclonal antibody (Cosmobio) diluted 1/100 and a secondary antibody diluted 1/50 and coupled to a fluorochrome.
as §4

With “Ser-Pro-Leu-Gln-NH2 (SPLQ-NH2) [SEQ ID no.1]” as the substance, how does the “Amount of Clock protein compared with untreated skin” value (Clock protein [1]) read?
The value was “slightly greater”.

What about the “Expression of the Clock protein by labeling in fibroblasts” value (Clock protein [2]) of the same substance?
The value was “increase in the expression of the Clock protein”.

And the “Intensity (%) of Clock protein, western blot” value (Clock protein [3])?
The value was 179%.

And the “Labeling of the Clock protein compared to untreated control” value (Clock protein [4]; after 62 hr of culturing)?
The value was “increased”.

What about the “Labeling of the Clock protein compared to untreated control skin” value (Clock protein [4]; after 134 hr) of the same substance?
Its value is “largely increased”.

What about the “Expression of the PER-1 protein compared to untreated” value (Per-1 protein [5]) of the same substance?
The value was “increased”.

What about the “Morphological structure of skin biopsies / damage caused by aging” value (skin biopsies) of the same substance?
Its value is “well-preserved morphological structure”.

And the “Amount of Per-1 protein compared with untreated skin” value (Per-1 protein [6])?
The value was “greater”.
